Series [1] is described as follows: Pharmacokinetic study after intravenous and percutaneous administration in hairless mice. As to conditions: 1 w/v % Macrogol 400 solution, 50 μL/animal, occlusive. The series is classed as in vivo. Here is the method:
Test substances (0.1 to 0.5 mg/5 mL/kg) were administered by bolus injection into the tail vein of hairless mice under anesthesia.
A 4 cm^2 administration site (2 cm×2 cm) was marked on the back skin of hairless mice under anesthesia (fed) using an oil-based marker. Test substances were applied to the administration site at 50 μL/animal (1 w/v % Macrogol 400 solution). Gauze (BEMCOT®) about 2 cm×2 cm in size was fixed using double-sided tape to an approximately 4 cm×4 cm polyethylene sheet, and the gauze face was placed over the face on which the test substance had been applied. An adhesive elastic bandage (Elastopore, about 10 cm) was stuck over the gauze to fix and protect the face on which the test substance had been applied. The mice were then returned to its cage. Twenty-four hours after administration, occlusive application was confirmed to have been properly carried out. […]
The cryopreserved plasma obtained by the above method was thawed at room temperature. After removing the protein using methanol, the concentration of the test substance in the plasma was measured. […]
Transdermal absorption rate was calculated using the following equation by calculating the AUC (area under the curve of the concentration in plasma) from the plasma concentration of the test substance measured by the method described above. […]

Series [2] in a line: Solubility test in the 2nd fluid for the disintegration test of the Japanese Pharmacopoeia. The format is physicochemical. As to conditions: pH 6.8, aqueous buffer, thermodynamic from solid; pH6.8, shaken for 2 hours. Here is the method:
Test substances (10.0 mg) were correctly weighed, and methanol was added to adjust to 10 mL. The solution was diluted by 10 times to prepare a solution of […].
In a centrifuge tube 5.0 mg of the test substance was weighed, added with 5.0 mL of the 2nd fluid for the disintegration test of the Japanese pharmacopoeia, supersonified for 3 minutes, and shaken for 2 hours thereafter. This solution was filitered with a membrane filter (0.2 μm), 500 μL the filtrate was measured, 500 μL of acetonitrile was added, and fully stirred to obtain the sample solution.
To 250 mL of 0.2 mol/L potassium dihydrogenphosphate aqueous solution, 118 mL of 0.2 mol/L sodium hydroxide aqueous solution and water was added to adjust to 1000 mL.
Using a high performance liquid chromatography, each of the sample solution for a calibration curve and sample solution for solubility measurement is measured twice to calculate an average area for each.
Based on the average area obtained in the above mentioned method, using an equation below to calculate a solubility. Solubility in the 2nd fluid for the disintegration test of the Japanese pharmacopoeia(μg/mL)=((P×2)/S)×100
S: Average area on the sample solution for a calibration curve
P: Average area on the sample solution for solubility measurement

Another series concerns the target T1, human MMP-8 (Homo sapiens, UniProt P22894).
T1 construct: purchased Calbiochem 444229
The experiment in a line: MMP-8 inhibition test. The series is classed as biochemical. As to conditions: read-out: Inhibitory activity (IC50, nM) MMP-8. Here is the method: (§1) MMP inhibition tests can be carried out, for example, using a fluorescent synthetic substrate based on the methods described in Bickett et al. (D. Mark Bickett et al., Anal. Biochem., 1993, 212, 58-64) and Nagase et al. (H. Nagase et al., J. Biol. Chem., 1994, 269, 20952-20957). The method for each MMP inhibition test is shown below.
90 μL (29 ng) of human MMP-8 (Calbiochem #444229) was mixed with 10 μL of 10 mM APMA, and activated by reacting at 37° C. for 1 hour. 10 μL of the resultant enzyme solution was diluted to 90 μL with an assay buffer A. The mixture was added to 90 μL of a 20 μM fluorescent substrate (MOCAc-Pro-Leu-Gly-Leu-A2pr(Dnp)-Ala-Arg-NH2, Peptide Institute Inc., #3163-v) (SEQ ID NO: 3) prepared with an assay buffer B, and reacted at 37° C. for 5 hours. Enzyme activity was then determined by measuring with a fluorescence intensity meter (Labsystems, Fluoroskan Ascent) at an excitation wavelength of 320 nm and a measurement wavelength of 405 nm.
(§2) From the enzyme activity in the presence or the absence of the test substance, the inhibition rate was determined, and the 50% inhibitiory concentration (IC50) of the test substance was calculated.

Another series has as its target T2, human MMP-9 (Homo sapiens, UniProt P14780).
T2 construct: purchased Calbiochem 444231
Put plainly: MMP-9 inhibition test. The format is biochemical. As to conditions: read-out: Inhibitory activity (IC50, nM) MMP-9. On the procedure: as §1
90 μL (11 ng) of human MMP-9 (Calbiochem #444231) was mixed with 10 μL of 10 mM APMA, and activated by reacting at 37° C. for 2 hours. 10 μL of the resultant enzyme solution was diluted to 90 μL with an assay buffer A. The mixture was added to 90 μL of a 20 μM fluorescent substrate (Dnp-Pro-Cha-Gly-Cys(Me)-His-Ala-Lys(Nma)-NH2) (SEQ ID NO: 2) prepared with an assay buffer B, and reacted at 37° C. for 4 hours. Enzyme activity was then determined by measuring with a fluorescence intensity meter (Labsystems, Fluoroskan Ascent) at an excitation wavelength of 355 nm and a measurement wavelength of 460 nm.
as §2

As a reminder, the solubility is how much of the substance goes into solution per volume. Low values mean a poorly soluble substance, high ones a readily soluble substance. Broadly, the IC50 is the midpoint of a concentration-inhibition curve.

In brackets after ≈: the same amount, converted by molar mass.

T2 sequence (P14780 107-707 limits assumed): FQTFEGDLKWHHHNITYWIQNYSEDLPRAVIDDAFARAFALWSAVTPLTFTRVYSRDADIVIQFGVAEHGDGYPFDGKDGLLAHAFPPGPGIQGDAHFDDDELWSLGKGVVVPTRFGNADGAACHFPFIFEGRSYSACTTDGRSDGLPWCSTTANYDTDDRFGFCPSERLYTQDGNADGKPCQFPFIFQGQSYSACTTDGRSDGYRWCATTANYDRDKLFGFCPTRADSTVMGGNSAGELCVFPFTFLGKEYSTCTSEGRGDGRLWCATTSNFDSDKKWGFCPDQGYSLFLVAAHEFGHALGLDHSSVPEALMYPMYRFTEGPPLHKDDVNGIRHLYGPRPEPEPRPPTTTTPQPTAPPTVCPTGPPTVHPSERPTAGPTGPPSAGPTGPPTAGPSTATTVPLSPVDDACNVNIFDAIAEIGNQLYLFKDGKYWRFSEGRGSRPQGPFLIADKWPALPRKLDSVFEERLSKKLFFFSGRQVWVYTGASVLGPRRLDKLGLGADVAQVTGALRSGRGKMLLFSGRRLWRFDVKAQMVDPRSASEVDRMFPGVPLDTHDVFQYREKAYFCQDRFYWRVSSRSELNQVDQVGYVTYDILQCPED
T1 sequence (P22894 101-467): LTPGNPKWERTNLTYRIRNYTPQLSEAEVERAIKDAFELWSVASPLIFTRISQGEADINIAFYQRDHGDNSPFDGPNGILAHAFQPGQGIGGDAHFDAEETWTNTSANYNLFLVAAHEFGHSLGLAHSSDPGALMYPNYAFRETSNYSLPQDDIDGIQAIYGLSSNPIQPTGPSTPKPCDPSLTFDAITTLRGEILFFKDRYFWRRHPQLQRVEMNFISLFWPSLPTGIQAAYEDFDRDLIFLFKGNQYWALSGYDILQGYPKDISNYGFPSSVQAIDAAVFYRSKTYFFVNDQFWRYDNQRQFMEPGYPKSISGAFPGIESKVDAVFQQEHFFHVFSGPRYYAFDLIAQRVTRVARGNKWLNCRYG

Regarding `Cc1cccn(CC2(c3ccc(F)c(F)c3)NC(=O)NC2=O)c1=O` (single isomer, unassigned; (+)) [(+)-5-(3,4-difluorophenyl)-5-[(3-methyl-2-oxopyridin-1(2H)-yl)methyl]imidazolidine-2,4-dione], the “Transdermal absorbability after percutaneous administration” value in series [1] was “good transdermal absorbability”. Besides, the solubility at 2 h in series [2] amounted to 430 µg/mL (≈ 1290 µM). Besides, the IC50 at human MMP-8 and on human MMP-9 was above 10000 nM each time.
